What was measured:
[1] = tested on: HIV-1IIIB; test: HIV-1 antiviral assay (CPE reduction, MTS); assay type: cell-based; settings: peptide 10 micrograms per ml, 6 days post-infection
[2] = tested on: CEM-SS cells; test: Cytotoxicity in HIV-1 assay (MTS cell viability); settings: CEM-SS cells, cells plus peptide only; peptide 10 micrograms per ml; MTS
[3] = tested on: HCMV strain AD169; test: HCMV plaque reduction assay in MRC-5 cells; settings: HCMV in MRC-5 cells; peptide 10 micrograms per ml; 7-10 days
[4] = tested on: MRC-5 cells; settings: human, 6 days
Procedure: For cytotoxicity testing, MRC-5 cells were seeded at 2,500 cells/well in 96 well plates using growth medium. […] The following day, peptide was added and tested in duplicates. After a 6 days incubation period, cell viability was measured using CellTiter 96 Solution (Promega). Plates were incubated for additional 4 hours at 37° C. Adhesive plate sealers were used in place of lids, the sealed plates were inverted several times to mix the soluble formazan product and the plate was read spectrophotometrically at 490/560 nm with a Molecular Devices Vmax plate reader.

[5] = tested on: HepG2-2.2.15 cells; settings: peptide 10 micrograms per ml, dye uptake assay, % cell control

Cc1cn([C@H]2C[C@H](N=[N+]=[N-])[C@@H](CO)O2)c(=O)[nH]c1=O [AZT, reference compound]
% CPE reduction in HIV-1 infected CEM-SS cells [1]: 99% | % Cell viability [2]: 97%

Nc1nc(O)c2ncn(COC(CO)CO)c2n1 [Ganciclovir, reference compound]
% plaque reduction [3]: 100% | % Cell viability [4]: 100%

CC(C)(C)NC(=O)[C@@H]1CN(Cc2cccnc2)CCN1C[C@@H](O)C[C@@H](Cc1ccccc1)C(=O)N[C@H]1c2ccccc2C[C@H]1O [Indinavir, indinavir]
% CPE reduction in HIV-1 infected CEM-SS cells [1]: 100%

Nc1ccn([C@@H]2CS[C@H](CO)O2)c(=O)n1 [3TC, Lamivudine, reference compound]
% Cell viability [5]: 95.8%
